Results published in patent publication US8362017B2, “C-kit modulators and methods of use” (Exelixis, Inc., priority 2003, dated 2013).

molecular target: c-Kit kinase (Homo sapiens, UniProt P10721); experiment: c-Kit biochemical activity assay (AlphaScreen); conditions: biotinylated poly(Glu, Tyr) substrate, 1 hr at ambient temperature
Method: Kinase activity and compound inhibition are investigated using one or more of the three assay formats described below. The ATP concentrations for each assay are selected to be close to the Michaelis-Menten constant (KM) for each individual kinase. Dose-response experiments are performed at 10 different inhibitor concentrations in a 384-well plate format. The data are fitted to four-parameter equation (2) below; where Y is the observed signal, X is the inhibitor concentration, Min is the background signal in the absence of enzyme (0% enzyme activity), Max is the signal in the absence of inhibitor (100% enzyme activity), IC50 is the inhibitor concentration at 50% enzyme inhibition and H represents the empirical Hill's slope to measure the cooperativity. Typically H is close to unity. Y=Min+(Max−Min)/(1+(X/IC50)^H) Equation (2) c-Kit Assay
c-Kit biochemical activity was assessed using AlphaScreen™ (Perldn Elmer) technology, described above. Test compounds, ATP, biotinylated poly(Glu, Tyr) and c-Kit kinase were combined in a volume of 20 μL in a 384-well white, medium binding microtiter plate (Greiner). Reaction mixtures were incubated for 1 hr at ambient temperature. Reactions were quenched by addition of 10 μL of 15-30 mg/mL AlphaScreen bead suspension containing 75 mM Hepes, pH 7.4, 300 mM NaCl, 120 mM EDTA, 0.3% BSA and 0.03% Tween-20. After 16 hr incubation at ambient temperature plates were read using an AlphaQuest reader (Perkin Elmer).

Chain of c-Kit kinase (P10721 26-976): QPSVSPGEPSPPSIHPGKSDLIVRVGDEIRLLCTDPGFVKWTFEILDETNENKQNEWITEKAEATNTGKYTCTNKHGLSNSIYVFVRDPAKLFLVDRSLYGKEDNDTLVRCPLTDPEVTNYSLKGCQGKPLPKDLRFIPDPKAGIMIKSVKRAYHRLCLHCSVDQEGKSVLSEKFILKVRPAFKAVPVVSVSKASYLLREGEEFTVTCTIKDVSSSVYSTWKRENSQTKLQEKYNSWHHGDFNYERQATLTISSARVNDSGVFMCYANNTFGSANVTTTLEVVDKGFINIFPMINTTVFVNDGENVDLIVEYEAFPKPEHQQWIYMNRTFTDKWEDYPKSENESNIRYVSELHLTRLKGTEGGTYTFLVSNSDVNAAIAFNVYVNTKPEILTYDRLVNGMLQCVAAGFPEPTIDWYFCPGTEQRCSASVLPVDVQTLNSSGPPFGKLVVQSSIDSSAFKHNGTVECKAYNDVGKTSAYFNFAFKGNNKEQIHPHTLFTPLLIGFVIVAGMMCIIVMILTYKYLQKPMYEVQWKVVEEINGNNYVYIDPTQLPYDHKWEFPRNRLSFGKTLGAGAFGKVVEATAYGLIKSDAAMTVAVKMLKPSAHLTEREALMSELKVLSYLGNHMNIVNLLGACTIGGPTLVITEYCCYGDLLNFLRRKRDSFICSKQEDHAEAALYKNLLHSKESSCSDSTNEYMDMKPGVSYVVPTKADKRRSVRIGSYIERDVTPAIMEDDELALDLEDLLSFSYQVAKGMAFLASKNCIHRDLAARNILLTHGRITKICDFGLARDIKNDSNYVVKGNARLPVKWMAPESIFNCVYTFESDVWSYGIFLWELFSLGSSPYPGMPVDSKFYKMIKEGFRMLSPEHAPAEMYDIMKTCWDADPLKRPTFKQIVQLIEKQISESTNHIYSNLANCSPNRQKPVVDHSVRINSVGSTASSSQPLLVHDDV

Row | SMILES | IC50 [nM]
1 | Cc1nnnn1-c1cccc(OCC(=O)Nc2ccc(Cl)c(C(F)(F)F)c2)c1 [Example 5, N-[4-chloro-3-(trifluoromethyl)phenyl]-2-{[3-(5-methyl-1H-tetrazol-1-yl)phenyl]oxy}acetamide] | 500 to 5000
2 | COc1ccc(Cl)cc1NC(=O)OCc1cccc(-c2cncnc2)c1 [Example 236, (3-pyrimidin-5-ylphenyl)methyl [5-chloro-2-(methyloxy)phenyl]carbamate] | 500 to 5000
3 | O=C(NCc1cccc(-c2ccc3nccnc3c2)c1)Nc1ccc(Cl)c(C(F)(F)F)c1 [Example 11, 1-(4-Chloro-3-trifluoromethyl-phenyl)-3-(3-quinoxalin-6-yl-benzyl)urea] | 50 to 500
4 | Cc1ccc(-n2cnnn2)cc1OCC(=O)Nc1ccc(Cl)c(C(F)(F)F)c1 [Example 18, N-[4-chloro-3-(trifluoromethyl)phenyl]-2-{[2-methyl-5-(1H-tetrazol-1-yl)phenyl]oxy}acetamide] | > 5000
5 | O=C(NCc1ccc(-c2cccnc2Cl)cc1)Nc1ccc(Cl)c(C(F)(F)F)c1 [Example 252, N-{[4-(2-chloropyridin-3-yl)phenyl]methyl}-N′-[4-chloro-3-(trifluoromethyl)phenyl]urea] | 500 to 5000
6 | O=C(Nc1ccc(Cl)c(C(F)(F)F)c1)OCc1cccc(-c2cncnc2)n1 [Example 262, (6-pyrimidin-5-ylpyridin-2-yl)methyl [4-chloro-3-(trifluoromethyl)phenyl]carbamate] | 500 to 5000
7 | O=C(NC(=O)c1cccc(-n2cnnn2)c1)Nc1ccc(Cl)c(C(F)(F)F)c1 [Example 13, 1-(4-chloro-3-trifluoromethyl-phenyl)-3-(3-tetrazol-1-yl-benzoyl)-urea] | 500 to 5000
8 | O=C(Nc1cc(C(F)(F)F)ccn1)OCc1cccc(-n2cnnn2)c1 [Example 257, [3-(1H-tetrazol-1-yl)phenyl]methyl [4-(trifluoromethyl)pyridin-2-yl]carbamate] | 50 to 500
9 | Cc1ccc(NC(=O)OCc2ccc(-c3cncnc3)cc2)cc1C [Example 237, (4-pyrimidin-5-ylphenyl)methyl (3,4-dimethylphenyl)carbamate] | 500 to 5000
10 | COc1ccc(Cl)cc1NC(=O)OCc1cccc(-c2cccnc2)c1 [Example 234, (3-pyridin-3-ylphenyl)methyl [5-chloro-2-(methyloxy)phenyl]carbamate] | 500 to 5000
11 | O=C(Nc1ccc(Cl)c(C(F)(F)F)c1)OCc1ccc(-c2cnc(N3CCNCC3)nc2)cc1 [Example 250, [4-(2-piperazin-1-ylpyrimidin-5-yl)phenyl]methyl [4-chloro-3-(trifluoromethyl)phenyl]carbamate] | 500 to 5000
12 | COc1cncc(-c2cccc(COC(=O)Nc3ccc(Cl)c(C(F)(F)F)c3)c2)c1 [Example 260, {3-[5-(methyloxy)pyridin-3-yl]phenyl}methyl [4-chloro-3-(trifluoromethyl)phenyl]carbamate] | 50 to 500
13 | O=C(Nc1ccc(Cl)c(C(F)(F)F)c1)OCc1cccc(-c2cccnc2)n1 [Example 261, 2,3′-bipyridin-6-ylmethyl [4-chloro-3-(trifluoromethyl)phenyl]carbamate] | 500 to 5000
14 | Cc1ccc(NC(=O)OCc2cccc(-c3cccnc3)c2)cc1C [Example 238, (3-pyridin-3-ylphenyl)methyl (3,4-dimethylphenyl)carbamate] | 50 to 500
15 | O=C(COc1ccc(-c2cncnc2)cc1)Nc1ccc(Cl)c(C(F)(F)F)c1 [Example 7, N-[4-chloro-3-(trifluoromethyl)phenyl]-2-[(4-pyrimidin-5-ylphenyl)oxy]acetamide] | 50 to 500

Continued, values first:

Row | IC50 [nM] | SMILES
16 | 500 to 5000 | O=C(NCc1cccc(-c2cccnc2F)c1)Nc1ccc(Cl)c(C(F)(F)F)c1 [Example 253, N-[4-chloro-3-(trifluoromethyl)phenyl]-N′-{[3-(2-fluoropyridin-3-yl)phenyl]methyl}urea]
17 | 500 to 5000 | CC(C)(C)OC(=O)N1CCCC(NC(=O)c2nc(-c3ccc(CNC(=O)Nc4ccc(Cl)c(C(F)(F)F)c4)cc3)cnc2N)C1 (stereo not drawn) [Example 240, 1,1-dimethylethyl 3-({[3-amino-6-(4-{[({[4-chloro-3-(trifluoromethyl)phenyl]amino}carbonyl)amino]methyl}phenyl)pyrazin-2-yl]carbonyl}amino)piperidine-1-carboxylate]
18 | 500 to 5000 | O=C(Nc1ccc(Cl)c(C(F)(F)F)c1)OCc1cccc(-c2cnc(N3CCNCC3)nc2)c1 [Example 249, [3-(2-piperazin-1-ylpyrimidin-5-yl)phenyl]methyl [4-chloro-3-(trifluoromethyl)phenyl]carbamate]
19 | 500 to 5000 | CC(C)(C)OC(=O)N1CCN(C(=O)c2nc(-c3cccc(CNC(=O)Nc4ccc(Cl)c(C(F)(F)F)c4)c3)cnc2N)CC1 [Example 243, 1,1-dimethylethyl 4-{[3-amino-6-(3-{[({[4-chloro-3-(trifluoromethyl)phenyl]amino}carbonyl)amino]methyl}phenyl)pyrazin-2-yl]carbonyl}piperazine-1-carboxylate]
20 | 500 to 5000 | Nc1ncc(-c2cccc(CNC(=O)Nc3ccc(Cl)c(C(F)(F)F)c3)c2)nc1C(=O)N1CCNCC1 [Example 245, N-({3-[5-amino-6-(piperazin-1-ylcarbonyl)pyrazin-2-yl]phenyl}methyl)-N′-[4-chloro-3-(trifluoromethyl)phenyl]urea]
21 | 50 to 500 | Nc1ncc(-c2cccc(CNC(=O)Nc3ccc(Cl)c(C(F)(F)F)c3)c2)nc1C(=O)NC1CCCNC1 (stereo not drawn) [Example 241, 3-amino-6-(3-{[({[4-chloro-3-(trifluoromethyl)phenyl]amino}carbonyl)amino]methyl}phenyl)-N-piperidin-3-ylpyrazine-2-carboxamide]
22 | < 50 | O=C(Nc1ccc(Cl)c(C(F)(F)F)c1)OCc1cccc(-c2cn[nH]c2)c1 [Example 266, [3-(1H-pyrazol-4-yl)phenyl]methyl [4-chloro-3-(trifluoromethyl)phenyl]carbamate]
23 | 500 to 5000 | Nc1ncc(-c2ccc(CNC(=O)Nc3ccc(Cl)c(C(F)(F)F)c3)cc2)nc1C(=O)N1CCNCC1 [Example 246, N-({4-[5-amino-6-(piperazin-1-ylcarbonyl)pyrazin-2-yl]phenyl}methyl)-N′-[4-chloro-3-(trifluoromethyl)phenyl]urea]
24 | 50 to 500 | O=C(NCc1cccc(-c2cccnc2Cl)c1)Nc1ccc(Cl)c(C(F)(F)F)c1 [Example 251, N-{[3-(2-chloropyridin-3-yl)phenyl]methyl}-N′-[4-chloro-3-(trifluoromethyl)phenyl]urea]
25 | 500 to 5000 | CC(C)(C)OC(=O)N1CCCC(NC(=O)c2nc(-c3cccc(CNC(=O)Nc4ccc(Cl)c(C(F)(F)F)c4)c3)cnc2N)C1 (stereo not drawn) [Example 239, 1,1-dimethylethyl 3-({[3-amino-6-(3-{[({[4-chloro-3-(trifluoromethyl)phenyl]amino}carbonyl)amino]methyl}phenyl)pyrazin-2-yl]carbonyl}amino)piperidine-1-carboxylate]
26 | 500 to 5000 | CC(C)(C)OC(=O)N1CCN(C(=O)c2nc(-c3ccc(CNC(=O)Nc4ccc(Cl)c(C(F)(F)F)c4)cc3)cnc2N)CC1 [Example 244, 1,1-dimethylethyl 4-{[3-amino-6-(4-{[({[4-chloro-3-(trifluoromethyl)phenyl]amino}carbonyl)amino]methyl}phenyl)pyrazin-2-yl]carbonyl}piperazine-1-carboxylate]
27 | 500 to 5000 | O=C(NCc1cccc(-c2cncc3ccccc23)c1)Nc1ccc(Cl)c(C(F)(F)F)c1 [Example 263, N-[4-chloro-3-(trifluoromethyl)phenyl]-N′-[(3-isoquinolin-4-ylphenyl)methyl]urea]
